US11629171B2, “Beta-hairpin peptidomimetics” (POLYPHOR AG, priority 2017, dated 2023)
Values after ≈ are worked out from the molar mass of the structure shown. Where a SMILES comes first, the peptide text is derived from it. Bridges are numbered along the chain shown (N, C = ends). Roman numbers before positions name the chains, in order. [ ]: non-standard residue; d: D form. The star is where a group is joined. Thr(ol) = C[C@@H](O)[C@H](N)CO; Pen = CC(C)(S)[C@H](N)C(=O)O; Tle = CC(C)(C)[C@H](N)C(=O)O; Hiv = CC(C)[C@H](O)C(=O)O; dDab = NCC[C@@H](N)C(=O)O; hSer = N[C@@H](CCO)C(=O)O; NHCH(CH2OH)2 = OCC(CO)N*; Orn = NCCC[C@H](N)C(=O)O; Dab = NCC[C@H](N)C(=O)O; Dap = NC[C@H](N)C(=O)O

Key:
Assay type in all cases: cell-based
[1] = system: human red blood cells (hRBC); assay: Hemolysis; conditions: red cells of human, 1 h, 200
In short: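 First, fresh human erythrocytes are washed in PBS; next, they are incubated at 20% (v/v) with compound at 200 μg/mL for 1 h at 37° C. Finally, centrifuged supernatants are diluted and OD540 is taken relative to the Triton X-100 lysis control.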

[2] = system: Klebsiella pneumoniae SSI #3010; conditions: SSI #3010
In short: (§1)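 Peptides are tested in serial two-fold dilutions against about 10^6 CFU/mL in MH-II broth containing 0.002% P-80 (v/v, final). Plates incubate 18-20 h at 35° C, and the MIC is the lowest peptide level (μg/mL) showing no visible growth.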

[3] = system: Escherichia coli ATCC 25922; conditions: ATCC 25922
In short: as §1

[4] = system: Acinetobacter baumannii 872842; conditions: 872842
In short: as §1

[5] = system: Acinetobacter baumannii DSM 30008; conditions: DSM 30008
In short: as §1

[6] = system: Klebsiella pneumoniae 968733; conditions: 968733
In short: as §1

[7] = system: Enterobacter cloacae 848840; conditions: 848840
In short: as §1

Escherichia coli 926415 = conditions: 926415
In short: as §1

[8] = system: Pseudomonas aeruginosa ATCC 27853; conditions: ATCC 27853
In short: as §1

| Compound | Hemolysis at 200 μg/mL [1] | MIC [2] | MIC [3] | MIC [4] | MIC [5] | MIC [6] | MIC [7] | MIC (Escherichia coli 926415) | MIC [8] |
| --- | --- | --- | --- | --- | --- | --- | --- | --- | --- |
| CC(C)C[C@@H]1NC(=O)[C@@H](CC(C)C)NC(=O)[C@H](CCN)NC(=O)[C@@H](NC(=O)[C@H](CCN)NC(=O)[C@@H](NC(=O)[C@H](CCN)NC(=O)CC[C@@H]2NC(=O)[C@@H](NC(=O)[C@H](Cc3ccc(O)cc3)NC(=O)[C@H](CCN)NC(=O)[C@@H](O)C(C)C)CSSC[C@@H](C(=O)N[C@H](C(=O)N[C@@H](CCC(=O)O)C(=O)N[C@H](CO)[C@@H](C)O)C(C)(C)C)NC(=O)[C@H](Cc3c[nH]c4ccccc34)NC(=O)[C@H]([C@@H](C)O)NC(=O)[C@@H](CCN)NC2=O)[C@@H](C)O)CCNC(=O)[C@H]([C@@H](C)O)NC(=O)[C@H](CCN)NC(=O)[C@H](CCN)NC1=O [Ex. 191] (I: H-[Hiv][Dab]YCE[dDab]TWC[Tle]E[Thr(ol)] / II: [Dab]T[Dab][Dab][Dab][dL]L[Dab][Dab]T; disulfide I:4-I:9; amide I:5-II:N; lactam II:4-II:C) | 1% | 0.25 µg/mL (≈ 0.102 µM) | 0.125 µg/mL (≈ 0.0512 µM) | 0.5 µg/mL (≈ 0.205 µM) | 0.125 µg/mL (≈ 0.0512 µM) | 2 µg/mL (≈ 0.819 µM) | 0.5 µg/mL (≈ 0.205 µM) | 1 µg/mL (≈ 0.409 µM) | 0.25 µg/mL (≈ 0.102 µM) |
| CC(C)C[C@@H]1NC(=O)[C@@H](CC(C)C)NC(=O)[C@H](CCN)NC(=O)[C@@H](NC(=O)[C@H](CCN)NC(=O)[C@@H](NC(=O)[C@H](CCN)NC(=O)CC[C@@H]2NC(=O)[C@@H](NC(=O)[C@H](Cc3ccc(O)cc3)NC(=O)[C@@H](NC(=O)[C@@H](O)C(C)C)[C@@H](C)O)CSSC[C@@H](C(=O)N[C@H](C(=O)N[C@@H](C)C(=O)N[C@H](CO)[C@@H](C)O)C(C)(C)C)NC(=O)[C@H](Cc3c[nH]c4ccccc34)NC(=O)[C@H](CCO)NC(=O)[C@@H](CCN)NC2=O)[C@@H](C)O)CCNC(=O)[C@H]([C@@H](C)O)NC(=O)[C@H](CCN)NC(=O)[C@H](CCN)NC1=O [Ex. 193] (I: H-[Hiv]TYCE[dDab][hSer]WC[Tle]A[Thr(ol)] / II: [Dab]T[Dab][Dab][Dab][dL]L[Dab][Dab]T; disulfide I:4-I:9; amide I:5-II:N; lactam II:4-II:C) | <1% | 0.25 µg/mL (≈ 0.105 µM) | 0.125 µg/mL (≈ 0.0524 µM) | 0.5 µg/mL (≈ 0.21 µM) | 0.0625 µg/mL (≈ 0.0262 µM) | 0.5 µg/mL (≈ 0.21 µM) | 0.5 µg/mL (≈ 0.21 µM) | 0.5 µg/mL (≈ 0.21 µM) | 0.25 µg/mL (≈ 0.105 µM) |
| CC(C)C[C@@H]1NC(=O)[C@@H](CC(C)C)NC(=O)[C@H](CCN)NC(=O)[C@@H](NC(=O)[C@H](CCN)NC(=O)[C@@H](NC(=O)[C@H](CCN)NC(=O)CC[C@@H]2NC(=O)[C@@H](NC(=O)[C@H](Cc3ccc(O)cc3)NC(=O)[C@@H](NC(=O)[C@@H](O)C(C)C)[C@@H](C)O)C(C)(C)SSC[C@@H](C(=O)N[C@H](C(=O)N[C@@H](C)C(=O)N[C@H](CO)[C@@H](C)O)C(C)(C)C)NC(=O)[C@H](Cc3c[nH]c4ccccc34)NC(=O)[C@H](CCO)NC(=O)[C@@H](CCN)NC2=O)[C@@H](C)O)CCNC(=O)[C@H]([C@@H](C)O)NC(=O)[C@H](CCN)NC(=O)[C@H](CCN)NC1=O [Ex. 194] (I: H-[Hiv]TY[Pen]E[dDab][hSer]WC[Tle]A[Thr(ol)] / II: [Dab]T[Dab][Dab][Dab][dL]L[Dab][Dab]T; disulfide I:4-I:9; amide I:5-II:N; lactam II:4-II:C) | <1% | 0.0625 µg/mL (≈ 0.0259 µM) | 0.0625 µg/mL (≈ 0.0259 µM) | 0.25 µg/mL (≈ 0.104 µM) | 0.0625 µg/mL (≈ 0.0259 µM) | 0.25 µg/mL (≈ 0.104 µM) | 0.125 µg/mL (≈ 0.0518 µM) | 0.5 µg/mL (≈ 0.207 µM) | 0.125 µg/mL (≈ 0.0518 µM) |
| CC(C)C[C@@H]1NC(=O)[C@@H](CC(C)C)NC(=O)[C@H](CCN)NC(=O)[C@@H](NC(=O)[C@H](CN)NC(=O)[C@@H](NC(=O)[C@H](CCN)NC(=O)CC[C@@H]2NC(=O)[C@@H](NC(=O)[C@H](Cc3ccc(O)cc3)NC(=O)[C@@H](NC(=O)[C@@H](O)C(C)C)[C@@H](C)O)CSSC[C@@H](C(=O)N[C@H](C(=O)N[C@@H](C)C(=O)NC(CO)CO)C(C)(C)C)NC(=O)[C@H](Cc3c[nH]c4ccccc34)NC(=O)[C@H](CO)NC(=O)[C@@H](CCN)NC2=O)[C@@H](C)O)CCNC(=O)[C@H]([C@@H](C)O)NC(=O)[C@H](CCN)NC(=O)[C@H](CCN)NC1=O [Ex. 197] (I: H-[Hiv]TYCE[dDab]SWC[Tle]A-{NHCH(CH2OH)2} / II: [Dab]T[Dap][Dab][Dab][dL]L[Dab][Dab]T; disulfide I:4-I:9; amide I:5-II:N; lactam II:4-II:C) | <1% | 0.125 µg/mL (≈ 0.0533 µM) | 0.0625 µg/mL (≈ 0.0267 µM) | 0.25 µg/mL (≈ 0.107 µM) | 0.0625 µg/mL (≈ 0.0267 µM) | 0.5 µg/mL (≈ 0.213 µM) | 0.25 µg/mL (≈ 0.107 µM) | 0.5 µg/mL (≈ 0.213 µM) | 0.125 µg/mL (≈ 0.0533 µM) |
| CC(=O)N[C@H](C(=O)N[C@H](C(=O)N[C@@H](Cc1ccc(O)cc1)C(=O)N[C@H]1CSSC[C@@H](C(=O)N[C@H](C(=O)N[C@@H](CCN)C(=O)N[C@H](C(N)=O)C(C)C)C(C)(C)C)NC(=O)[C@H](Cc2c[nH]c3ccccc23)NC(=O)[C@H](CO)NC(=O)[C@@H](CCN)NC(=O)[C@H](CCC(=O)N[C@@H](CCN)C(=O)N[C@H](C(=O)N[C@@H](CN)C(=O)N[C@H]2CCNC(=O)[C@H]([C@@H](C)O)NC(=O)[C@H](CCN)NC(=O)[C@H](CCN)NC(=O)[C@H](CC(C)C)NC(=O)[C@@H](CC(C)C)NC(=O)[C@H](CCN)NC2=O)[C@@H](C)O)NC1=O)[C@@H](C)O)C(C)C [Ex. 206] (I: Ac-VTYCE[dDab]SWC[Tle][Dab]V-NH2 / II: [Dab]T[Dap][Dab][Dab][dL]L[Dab][Dab]T; disulfide I:4-I:9; amide I:5-II:N; lactam II:4-II:C) | 1% | 0.0625 µg/mL (≈ 0.0256 µM) | 0.03125 µg/mL (≈ 0.0128 µM) | 0.0625 µg/mL (≈ 0.0256 µM) | 0.0625 µg/mL (≈ 0.0256 µM) | 0.5 µg/mL (≈ 0.205 µM) | 0.125 µg/mL (≈ 0.0513 µM) | 0.0625 µg/mL (≈ 0.0256 µM) | 0.125 µg/mL (≈ 0.0513 µM) |
| CC(C)C[C@@H]1NC(=O)[C@@H](CC(C)C)NC(=O)[C@H](CCN)NC(=O)[C@@H](NC(=O)[C@H](CN)NC(=O)[C@@H](NC(=O)[C@H](CCN)NC(=O)CC[C@H]2NC(=O)[C@H](CCCN)NC(=O)[C@@H](NC(=O)[C@H](Cc3ccc(O)cc3)NC(=O)[C@@H](NC(=O)[C@@H](O)C(C)C)[C@@H](C)O)CSSC[C@@H](C(=O)N[C@H](C(=O)N[C@@H](C)C(=O)N[C@H](CO)[C@@H](C)O)C(C)(C)C)NC(=O)[C@H](Cc3c[nH]c4ccccc34)NC(=O)[C@H]([C@@H](C)O)NC2=O)[C@@H](C)O)CCNC(=O)[C@H]([C@@H](C)O)NC(=O)[C@H](CCN)NC(=O)[C@H](CCN)NC1=O [Ex. 210] (I: H-[Hiv]TYC[Orn][dE]TWC[Tle]A[Thr(ol)] / II: [Dab]T[Dap][Dab][Dab][dL]L[Dab][Dab]T; disulfide I:4-I:9; amide I:6-II:N; lactam II:4-II:C) | <1% | 0.25 µg/mL (≈ 0.105 µM) | 0.125 µg/mL (≈ 0.0524 µM) | 0.5 µg/mL (≈ 0.21 µM) | 0.25 µg/mL (≈ 0.105 µM) | 2 µg/mL (≈ 0.838 µM) | 2 µg/mL (≈ 0.838 µM) | 2 µg/mL (≈ 0.838 µM) | 0.25 µg/mL (≈ 0.105 µM) |
| CC(C)C[C@@H]1NC(=O)[C@@H](CC(C)C)NC(=O)[C@H](CCN)NC(=O)[C@@H](NC(=O)[C@H](CN)NC(=O)[C@@H](NC(=O)[C@H](CCN)NC(=O)CC[C@@H]2NC(=O)[C@@H](CCN)NC(=O)[C@H](CCCN)NC(=O)[C@@H](NC(=O)[C@H](Cc3ccc(O)cc3)NC(=O)[C@@H](NC(=O)[C@@H](O)C(C)C)[C@@H](C)O)CSSC[C@@H](C(=O)N[C@H](C(=O)N[C@@H](C)C(=O)N[C@H](CO)[C@@H](C)O)C(C)(C)C)NC(=O)[C@H](Cc3c[nH]c4ccccc34)NC2=O)[C@@H](C)O)CCNC(=O)[C@H]([C@@H](C)O)NC(=O)[C@H](CCN)NC(=O)[C@H](CCN)NC1=O [Ex. 211] (I: H-[Hiv]TYC[Orn][dDab]EWC[Tle]A[Thr(ol)] / II: [Dab]T[Dap][Dab][Dab][dL]L[Dab][Dab]T; disulfide I:4-I:9; amide I:7-II:N; lactam II:4-II:C) | <1% | 0.0625 µg/mL (≈ 0.0262 µM) | 0.0625 µg/mL (≈ 0.0262 µM) | 0.0625 µg/mL (≈ 0.0262 µM) | 0.03125 µg/mL (≈ 0.0131 µM) | 0.25 µg/mL (≈ 0.105 µM) | 2 µg/mL (≈ 0.839 µM) | 0.25 µg/mL (≈ 0.105 µM) | 0.125 µg/mL (≈ 0.0524 µM) |
